Results on two compounds are retold here after patent publication US11180505B2, “Crystal form of PARP-1 inhibitor and preparation method therefor” (Jiangsu Hengrui Medicine Co., Ltd., priority 2017, dated 2021).

Data set [1] in a line: accelerated stability test of the crystal form (XRD comparison). Type of data set: physicochemical. The following applies: 40° C., relative humidity of 75%, 6 months, XRD compared with 0 month. The protocol:
The sample of Example 1 was subjected to an accelerated stability test (40° C., relative humidity of 75%) for 6 months and then sent to XRD for testing, and compared with the original data to confirm whether the crystal form changed.
Among them, the XRPD pattern of crystal form A of the compound of formula I after 6 months of the accelerated stability test (40° C., relative humidity of 75%) is shown in FIG. 3. The comparative XRPD pattern of crystal form A of the compound of formula I after accelerated stability test is shown in FIG. 4.

Data set [2] has as its target PARP enzyme (Homo sapiens, UniProt P09874). Conditions: in vitro; cited from earlier work.
Data set [3] deals with transplanted tumor. Conditions: nude-mouse transplanted tumor model; cited from earlier work.
The conditions of data set [4]: rat, in vivo; cited from earlier work.
The conditions of data set [5]: dog, in vivo; cited from earlier work.

Where two headings read alike, the source gives them in different places.

Chain of PARP enzyme (P09874 whole entry): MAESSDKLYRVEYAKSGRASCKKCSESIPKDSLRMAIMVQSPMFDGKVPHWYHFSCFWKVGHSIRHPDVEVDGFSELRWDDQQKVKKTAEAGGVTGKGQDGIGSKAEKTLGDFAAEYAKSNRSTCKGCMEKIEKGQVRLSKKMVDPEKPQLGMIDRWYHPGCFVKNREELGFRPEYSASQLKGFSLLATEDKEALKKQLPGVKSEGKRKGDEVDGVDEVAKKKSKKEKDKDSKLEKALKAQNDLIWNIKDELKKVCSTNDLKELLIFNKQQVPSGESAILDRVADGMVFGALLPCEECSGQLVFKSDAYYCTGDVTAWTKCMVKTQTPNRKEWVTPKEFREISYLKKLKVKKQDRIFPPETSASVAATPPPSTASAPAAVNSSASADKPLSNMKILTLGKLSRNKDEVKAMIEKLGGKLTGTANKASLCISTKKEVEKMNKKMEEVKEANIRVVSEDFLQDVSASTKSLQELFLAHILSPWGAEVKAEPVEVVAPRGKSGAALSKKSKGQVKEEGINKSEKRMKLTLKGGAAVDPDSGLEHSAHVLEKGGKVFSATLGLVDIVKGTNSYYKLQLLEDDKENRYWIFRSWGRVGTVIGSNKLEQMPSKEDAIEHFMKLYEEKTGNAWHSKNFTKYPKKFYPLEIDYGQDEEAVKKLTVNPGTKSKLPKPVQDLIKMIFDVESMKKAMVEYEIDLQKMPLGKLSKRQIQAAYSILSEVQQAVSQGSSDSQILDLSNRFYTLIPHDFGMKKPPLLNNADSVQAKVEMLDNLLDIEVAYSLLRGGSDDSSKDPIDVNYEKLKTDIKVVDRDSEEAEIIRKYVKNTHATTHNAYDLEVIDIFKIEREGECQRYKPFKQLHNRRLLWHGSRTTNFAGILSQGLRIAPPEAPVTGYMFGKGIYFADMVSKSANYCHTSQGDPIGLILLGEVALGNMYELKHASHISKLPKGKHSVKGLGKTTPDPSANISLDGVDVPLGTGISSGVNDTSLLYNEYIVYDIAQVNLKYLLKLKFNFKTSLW

On to `O=C(c1cc(Cc2n[nH]c(=O)c3ccccc23)ccc1F)N1CCn2nc(C(F)(F)F)nc2C1` [Example 1], for which the “crystal form change after accelerated stability test” value in data set [1] was “did not change”.

For `O=C(c1cc(Cc2n[nH]c(=O)c3ccccc23)ccc1F)N1CCn2nc(C(F)(F)F)nc2C1` [formula I], the “inhibition of the activity of PARP enzyme” value in data set [2] is reported as “inhibit the activity of PARP enzyme significantly”. Moreover, the “inhibition of tumor growth” value in data set [3] is given as “inhibit tumor growth significantly”. Further, the “safety (toxicological data)” value in data set [4] and in data set [5] was “has a corresponding safety” throughout.
